Activity calls are given as the source filed them.
Key:
[1] = target: Cystic fibrosis transmembrane conductance regulator/Golgi-associated PDZ and coiled-coil motif-containing protein (Homo sapiens, UniProt P13569+Q9HD26); experiment: potency against CAL PDZ-peptide interaction – biochemical, fluorescence polarization, Cerulean-tagged CAL PDZ, cherry-picks, dose response (AID 504773)
Nonstructural protein 1 = Nonstructural protein 1 (Influenza A virus, UniProt Q194T2); assay type: functional, Influenza A virus (A/California/07/2009(H1N1))
Chain of Nonstructural protein 1 (Q194T2 whole entry): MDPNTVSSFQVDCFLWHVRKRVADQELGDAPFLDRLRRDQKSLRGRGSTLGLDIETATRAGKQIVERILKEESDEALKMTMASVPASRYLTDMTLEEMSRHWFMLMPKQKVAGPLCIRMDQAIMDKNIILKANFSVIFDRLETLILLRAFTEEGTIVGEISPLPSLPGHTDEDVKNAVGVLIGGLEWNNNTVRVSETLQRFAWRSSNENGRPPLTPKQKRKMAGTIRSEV

[2] = target: Heat shock protein HSP 90-alpha (Homo sapiens, UniProt P07900); assay type: functional, organism-based
[3] = HGIII-sPLA2 enzyme inhibition potency – biochemical, QFRET, IC50, dose response (AID 743457);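 note: green fluorescence rise as the enzyme cleaves BODIPY PC-A2 in liposomes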
[4] = target: Acyl-homoserine lactone acylase PvdQ (Pseudomonas aeruginosa (strain LESB58), UniProt Q9I194); experiment: PvdQ acylase enzyme activity blockers – biochemical, fluorescence, plate reader and imaging, cherry-picks, dose response (AID 493231)
Chain of Acyl-homoserine lactone acylase PvdQ (Q9I194 24-193 limits assumed): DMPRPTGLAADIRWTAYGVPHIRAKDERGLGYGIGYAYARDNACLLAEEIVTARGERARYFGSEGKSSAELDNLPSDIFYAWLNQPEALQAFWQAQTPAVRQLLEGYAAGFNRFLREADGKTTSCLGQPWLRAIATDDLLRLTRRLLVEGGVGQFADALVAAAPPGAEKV
Chain of Acyl-homoserine lactone acylase PvdQ (Q9I194 217-762 limits assumed): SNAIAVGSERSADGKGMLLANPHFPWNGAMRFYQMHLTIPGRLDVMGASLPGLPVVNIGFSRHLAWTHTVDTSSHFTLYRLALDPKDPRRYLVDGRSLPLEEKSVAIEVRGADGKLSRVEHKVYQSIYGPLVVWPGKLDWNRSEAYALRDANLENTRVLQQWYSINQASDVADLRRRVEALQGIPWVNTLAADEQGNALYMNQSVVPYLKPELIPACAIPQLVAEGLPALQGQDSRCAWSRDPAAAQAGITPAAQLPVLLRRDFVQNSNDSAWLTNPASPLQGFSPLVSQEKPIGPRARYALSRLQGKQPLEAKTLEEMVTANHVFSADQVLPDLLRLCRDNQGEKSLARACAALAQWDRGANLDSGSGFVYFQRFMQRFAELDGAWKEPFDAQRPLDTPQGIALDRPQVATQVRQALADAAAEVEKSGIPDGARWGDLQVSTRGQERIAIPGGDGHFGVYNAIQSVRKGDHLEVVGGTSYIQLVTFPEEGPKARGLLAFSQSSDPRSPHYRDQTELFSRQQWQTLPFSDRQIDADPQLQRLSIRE

Interleukin-8 [5] = target: T1, Interleukin-8 (Homo sapiens, UniProt P10145); experiment: Dose Response confirmation of uHTS small molecule hits for cystic fibrosis induced NFkb Inhibitors in a TNFa-induced IL8 counterscreen.; assay type: functional; details: read-out: IC50_Mean
T1 sequence (P10145 whole entry): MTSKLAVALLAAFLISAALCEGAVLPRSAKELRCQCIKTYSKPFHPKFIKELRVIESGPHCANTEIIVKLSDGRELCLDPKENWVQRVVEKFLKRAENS

Interleukin-8 [6] = target: T1, Interleukin-8; experiment: Dose Response confirmation of uHTS small molecule hits for cystic fibrosis induced NFkb Inhibitors in a PAF-induced IL8 counterscreen.; assay type: functional; details: read-out: IC50_Mean
Leucine aminopeptidase = target: T2, Leucine aminopeptidase (Plasmodium falciparum 3D7, UniProt Q8IL11); experiment: P. falciparum M17LAP inhibitors, primary screen, biochemical, fluorogenic H-Leu-NHMec substrate, 1536-well (AID 1619); assay type: functional
T2 sequence (Q8IL11 whole entry): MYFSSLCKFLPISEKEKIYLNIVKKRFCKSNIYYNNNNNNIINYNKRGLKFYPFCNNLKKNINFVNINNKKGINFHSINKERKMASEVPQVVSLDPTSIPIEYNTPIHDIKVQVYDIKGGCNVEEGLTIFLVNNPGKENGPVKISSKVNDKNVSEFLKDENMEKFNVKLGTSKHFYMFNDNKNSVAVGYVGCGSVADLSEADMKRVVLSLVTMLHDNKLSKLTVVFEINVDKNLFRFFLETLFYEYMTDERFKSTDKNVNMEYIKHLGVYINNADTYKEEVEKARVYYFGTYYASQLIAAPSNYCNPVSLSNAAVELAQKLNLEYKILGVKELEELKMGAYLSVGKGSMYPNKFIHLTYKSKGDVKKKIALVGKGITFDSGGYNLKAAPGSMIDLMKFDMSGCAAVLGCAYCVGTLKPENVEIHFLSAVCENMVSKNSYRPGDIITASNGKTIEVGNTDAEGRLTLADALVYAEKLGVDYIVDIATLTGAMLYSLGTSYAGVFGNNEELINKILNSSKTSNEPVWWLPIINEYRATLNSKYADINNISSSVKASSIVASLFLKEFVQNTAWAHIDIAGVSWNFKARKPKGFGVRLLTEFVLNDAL

Estrogen receptor = target: T3, Estrogen receptor (Homo sapiens, UniProt P03372); experiment: ERα coactivator recruitment enhancers – biochemical, TR-FRET, ERα LBD, dose response (AID 737)
T3 sequence (P03372 whole entry): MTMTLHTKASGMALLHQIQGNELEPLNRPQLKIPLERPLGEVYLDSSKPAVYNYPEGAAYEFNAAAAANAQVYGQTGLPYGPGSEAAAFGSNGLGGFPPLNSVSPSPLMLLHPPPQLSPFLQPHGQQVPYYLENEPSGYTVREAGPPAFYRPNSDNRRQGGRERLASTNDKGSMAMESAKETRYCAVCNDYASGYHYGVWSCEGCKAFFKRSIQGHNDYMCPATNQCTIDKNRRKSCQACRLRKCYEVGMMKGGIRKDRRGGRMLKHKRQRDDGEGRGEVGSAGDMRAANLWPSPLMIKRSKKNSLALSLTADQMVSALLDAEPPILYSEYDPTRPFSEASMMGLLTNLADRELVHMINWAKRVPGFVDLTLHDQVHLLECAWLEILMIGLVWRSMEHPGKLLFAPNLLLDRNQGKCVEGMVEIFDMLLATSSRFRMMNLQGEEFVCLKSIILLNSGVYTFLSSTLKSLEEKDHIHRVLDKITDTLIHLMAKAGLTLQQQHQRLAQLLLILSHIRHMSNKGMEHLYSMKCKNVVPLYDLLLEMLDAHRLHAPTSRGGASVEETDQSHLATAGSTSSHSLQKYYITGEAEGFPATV

[7] = target: T4, Replicative DNA helicase DnaB (Mycobacterium tuberculosis, UniProt P9WMR3); experiment: DnaB intein splicing inhibitors, dose response, biochemical, cell-free fluorescence (AID 449749); assay type: functional
T4 sequence (P9WMR3 whole entry): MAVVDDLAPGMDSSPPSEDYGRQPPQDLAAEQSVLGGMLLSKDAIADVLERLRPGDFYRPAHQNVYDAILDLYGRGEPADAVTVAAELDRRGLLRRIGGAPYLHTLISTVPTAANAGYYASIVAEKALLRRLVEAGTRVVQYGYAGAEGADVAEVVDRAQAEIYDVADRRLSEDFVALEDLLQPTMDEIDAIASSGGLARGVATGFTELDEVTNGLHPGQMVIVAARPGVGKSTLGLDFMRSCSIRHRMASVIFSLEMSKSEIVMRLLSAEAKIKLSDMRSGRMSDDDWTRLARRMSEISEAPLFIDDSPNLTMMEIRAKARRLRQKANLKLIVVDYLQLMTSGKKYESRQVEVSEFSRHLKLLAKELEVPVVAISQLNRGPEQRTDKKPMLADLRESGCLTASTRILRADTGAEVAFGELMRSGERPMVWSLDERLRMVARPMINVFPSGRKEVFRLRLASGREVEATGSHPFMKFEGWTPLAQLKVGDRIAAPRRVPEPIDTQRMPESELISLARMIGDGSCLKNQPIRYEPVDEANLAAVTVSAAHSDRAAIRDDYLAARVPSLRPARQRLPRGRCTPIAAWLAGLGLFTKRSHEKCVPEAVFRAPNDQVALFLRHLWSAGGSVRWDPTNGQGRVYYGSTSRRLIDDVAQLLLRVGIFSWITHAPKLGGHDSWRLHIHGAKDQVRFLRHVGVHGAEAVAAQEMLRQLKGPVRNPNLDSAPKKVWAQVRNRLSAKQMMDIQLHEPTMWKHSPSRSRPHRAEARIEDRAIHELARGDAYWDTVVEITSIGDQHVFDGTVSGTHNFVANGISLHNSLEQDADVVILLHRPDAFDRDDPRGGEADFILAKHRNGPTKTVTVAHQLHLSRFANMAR

Protein RecA = target: T5, Protein RecA (Mycobacterium tuberculosis, UniProt P9WHJ3); experiment: Fluorescence Cell-Free Homogeneous Dose Retest to Identify Inhibitors of RecA-Intein Splicing Activity. [Related pubchem assays (depositor defined):AID2097, AID2223, AID489010, AID492950]; assay type: functional
T5 sequence (P9WHJ3 whole entry): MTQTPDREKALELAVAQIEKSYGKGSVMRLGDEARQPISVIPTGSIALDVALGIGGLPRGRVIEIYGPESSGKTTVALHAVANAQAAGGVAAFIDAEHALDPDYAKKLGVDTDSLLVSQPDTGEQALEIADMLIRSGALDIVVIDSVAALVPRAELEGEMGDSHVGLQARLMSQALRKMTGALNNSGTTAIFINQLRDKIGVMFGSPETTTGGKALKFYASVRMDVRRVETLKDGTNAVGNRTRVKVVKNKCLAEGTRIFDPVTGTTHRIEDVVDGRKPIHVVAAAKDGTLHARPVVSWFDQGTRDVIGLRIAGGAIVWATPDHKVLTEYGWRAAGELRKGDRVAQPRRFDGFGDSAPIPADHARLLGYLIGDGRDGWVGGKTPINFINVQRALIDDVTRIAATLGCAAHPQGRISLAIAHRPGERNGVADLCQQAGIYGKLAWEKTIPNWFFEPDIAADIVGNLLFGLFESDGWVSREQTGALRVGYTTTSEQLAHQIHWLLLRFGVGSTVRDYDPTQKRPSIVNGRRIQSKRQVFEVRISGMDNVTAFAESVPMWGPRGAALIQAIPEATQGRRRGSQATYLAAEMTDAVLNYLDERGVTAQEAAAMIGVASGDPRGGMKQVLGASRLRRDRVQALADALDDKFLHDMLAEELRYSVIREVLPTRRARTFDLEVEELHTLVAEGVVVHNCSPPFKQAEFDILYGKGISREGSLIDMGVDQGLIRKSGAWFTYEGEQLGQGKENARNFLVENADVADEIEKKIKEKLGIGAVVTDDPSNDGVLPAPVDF

Protein Rev = Protein Rev (Human immunodeficiency virus type 1 group M subtype B (isolate HXB2)(HIV-1), UniProt P04618); experiment: blockers of HIV Rev/RRE RNA complex – biochemical, fluorescence polarization, HIV-1, dose response (AID 434976); design: species or system Human immunodeficiency virus 1
Chain of Protein Rev (P04618 whole entry): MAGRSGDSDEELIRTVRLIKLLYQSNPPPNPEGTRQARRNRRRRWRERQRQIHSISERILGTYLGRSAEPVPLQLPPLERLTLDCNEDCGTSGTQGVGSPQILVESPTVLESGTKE

[8] = target: Female germline-specific tumor suppressor gld-1 (Caenorhabditis elegans, UniProt Q17339); experiment: blockers of GLD-1/TGE RNA complex formation – biochemical, fluorescence polarization, C. elegans, dose response (AID 2802);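 note: fluorescence polarization of labeled TGE RNA bound by purified gld-1 protein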
Chain of Female germline-specific tumor suppressor gld-1 (Q17339 whole entry): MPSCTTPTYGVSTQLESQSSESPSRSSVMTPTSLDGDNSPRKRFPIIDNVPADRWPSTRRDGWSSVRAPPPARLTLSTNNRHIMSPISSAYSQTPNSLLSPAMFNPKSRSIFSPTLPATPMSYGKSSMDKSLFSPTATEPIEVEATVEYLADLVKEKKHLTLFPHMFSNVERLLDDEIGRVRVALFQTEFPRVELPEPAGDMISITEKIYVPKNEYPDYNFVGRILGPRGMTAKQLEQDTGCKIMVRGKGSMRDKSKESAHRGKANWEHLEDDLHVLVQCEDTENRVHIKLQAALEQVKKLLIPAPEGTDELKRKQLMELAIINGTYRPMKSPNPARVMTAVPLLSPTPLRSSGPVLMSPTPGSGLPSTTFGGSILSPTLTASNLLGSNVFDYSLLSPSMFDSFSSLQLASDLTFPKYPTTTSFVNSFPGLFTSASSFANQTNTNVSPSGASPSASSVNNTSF

[9] = antiviral protection against BTV-induced cell death – arbovirus, BSR cells, confirmation (AID 1250); assay type: functional;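 note: protection from viral cytopathic effect measured as cell viability by ATP luminescence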
[10] = NIH-3T3 fibroblast cytotoxicity, dose response, cytotoxicity control, cell-based, fluorescence, Alamar Blue, secondary assay (AID 2327); assay type: functional;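 note: NIH-3T3 mouse fibroblasts cultured with fluconazole at 8 µg/mL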
[11] = fluconazole-exposed Candida albicans growth modulators – fluorescence, retest, confirmation (AID 2467); assay type: functional, cell-based
[12] = target: T6, Serine/threonine-protein phosphatase (Candida dubliniensis (strain CD36 / CBS 7987 / NCPF 3949 / NRRLY-17841) (Yeast), UniProt B9W6M3); experiment: blockers of CaCl2-induced CDRE-lacZ signaling – S. cerevisiae, luminescence, secondary, dose response (AID 2388); assay type: functional, cell-based;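 note: yeast reporter cells carrying a calcineurin-responsive lacZ construct stimulated with calcium chloride; luminescent beta-galactosidase reporter signal in whole cells rather than isolated phosphatase activity; potency for inhibition where a drop in reporter signal means calcineurin blockade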
T6 sequence (B9W6M3 whole entry): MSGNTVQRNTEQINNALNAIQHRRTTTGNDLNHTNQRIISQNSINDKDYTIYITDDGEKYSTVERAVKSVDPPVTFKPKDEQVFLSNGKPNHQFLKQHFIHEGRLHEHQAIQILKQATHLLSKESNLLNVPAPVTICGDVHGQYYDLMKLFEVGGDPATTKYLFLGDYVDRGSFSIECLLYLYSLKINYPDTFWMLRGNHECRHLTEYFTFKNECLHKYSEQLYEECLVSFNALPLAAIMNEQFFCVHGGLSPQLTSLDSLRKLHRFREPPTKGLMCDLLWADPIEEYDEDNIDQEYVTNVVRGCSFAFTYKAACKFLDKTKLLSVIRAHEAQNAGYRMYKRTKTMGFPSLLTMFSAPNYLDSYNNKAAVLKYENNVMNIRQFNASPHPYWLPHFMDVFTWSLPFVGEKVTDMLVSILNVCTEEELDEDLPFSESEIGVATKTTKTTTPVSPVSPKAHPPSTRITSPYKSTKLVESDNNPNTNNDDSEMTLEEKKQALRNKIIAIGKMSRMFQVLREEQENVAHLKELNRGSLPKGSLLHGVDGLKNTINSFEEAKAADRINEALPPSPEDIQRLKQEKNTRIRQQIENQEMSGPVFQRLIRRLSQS

[13] = target: ATP-dependent molecular chaperone HSP82 (Candida albicans (strain WO-1) (Yeast), UniProt C4YTQ8); experiment: steroid-induced GRE reporter decrease in yeast – S. cerevisiae, luminescence, Hsp90 inhibitor project, dose response (AID 2400); assay type: functional, cell-based;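 note: beta-galactosidase luminescence from glucocorticoid response element reporter as proxy for Hsp90 function; inhibitor potency where signal loss means Hsp90 inhibition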
Chain of ATP-dependent molecular chaperone HSP82 (C4YTQ8 whole entry): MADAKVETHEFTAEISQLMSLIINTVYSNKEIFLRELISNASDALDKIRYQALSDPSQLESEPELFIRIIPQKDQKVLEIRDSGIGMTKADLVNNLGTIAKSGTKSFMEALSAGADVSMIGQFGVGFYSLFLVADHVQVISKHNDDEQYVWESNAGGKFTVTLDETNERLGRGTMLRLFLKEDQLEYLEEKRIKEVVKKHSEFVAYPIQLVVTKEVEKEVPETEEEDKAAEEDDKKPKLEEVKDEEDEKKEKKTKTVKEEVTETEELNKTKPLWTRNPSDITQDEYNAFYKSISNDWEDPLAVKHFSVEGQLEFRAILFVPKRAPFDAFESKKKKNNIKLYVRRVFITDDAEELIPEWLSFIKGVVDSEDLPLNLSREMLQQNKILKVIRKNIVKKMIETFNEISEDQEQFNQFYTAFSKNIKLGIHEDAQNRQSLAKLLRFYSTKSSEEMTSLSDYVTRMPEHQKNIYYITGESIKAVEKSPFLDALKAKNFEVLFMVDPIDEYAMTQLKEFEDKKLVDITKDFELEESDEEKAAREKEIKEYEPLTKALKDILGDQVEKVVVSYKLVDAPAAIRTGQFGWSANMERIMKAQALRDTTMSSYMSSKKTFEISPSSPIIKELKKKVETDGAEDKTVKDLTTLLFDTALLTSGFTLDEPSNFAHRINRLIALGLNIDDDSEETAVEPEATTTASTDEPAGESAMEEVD

Kallikrein-7 = Kallikrein-7 (Homo sapiens, UniProt P49862); experiment: Fluorescence Intensity-based biochemical primary high throughput dose response assay to identify activators of kallikrein-7 (K7) zymogen.
Chain of Kallikrein-7 (P49862 whole entry): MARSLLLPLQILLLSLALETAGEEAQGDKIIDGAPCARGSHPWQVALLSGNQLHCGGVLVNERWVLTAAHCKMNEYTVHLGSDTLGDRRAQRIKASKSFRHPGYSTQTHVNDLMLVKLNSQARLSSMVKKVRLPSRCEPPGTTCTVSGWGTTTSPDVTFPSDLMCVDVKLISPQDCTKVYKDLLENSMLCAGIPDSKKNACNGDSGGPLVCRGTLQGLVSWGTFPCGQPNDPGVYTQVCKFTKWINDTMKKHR

[14] = target: Melanin-concentrating hormone receptor 1 (Homo sapiens, UniProt Q99705); experiment: Late-stage fluorescence-based counterscreen for antagonists of the G-protein coupled receptor 7 (GPR7): cell-based dose response assay to identify antagonists of the melanin-concentrating hormone receptor 1 (MCHR1). [Related pubchem assays (depositor defined):AID1861, AID1880, AID1952, AID2148, AID2251, AID2257, AID485339]; assay type: functional;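 note: stimulated with 30 nM MCH peptide agonist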
Chain of Melanin-concentrating hormone receptor 1 (Q99705 whole entry): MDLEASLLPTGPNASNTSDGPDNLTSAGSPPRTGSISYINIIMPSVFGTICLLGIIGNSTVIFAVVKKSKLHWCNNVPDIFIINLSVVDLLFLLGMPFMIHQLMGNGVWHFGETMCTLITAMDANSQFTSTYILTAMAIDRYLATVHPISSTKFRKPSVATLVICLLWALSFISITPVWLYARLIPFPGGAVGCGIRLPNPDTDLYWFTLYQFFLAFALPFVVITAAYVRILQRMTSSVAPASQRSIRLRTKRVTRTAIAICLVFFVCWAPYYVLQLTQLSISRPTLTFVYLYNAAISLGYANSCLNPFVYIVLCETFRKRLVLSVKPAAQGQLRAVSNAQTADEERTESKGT

Chain of Cystic fibrosis transmembrane conductance regulator/Golgi-associated PDZ and coiled-coil motif-containing protein (P13569 whole entry, other chains not shown): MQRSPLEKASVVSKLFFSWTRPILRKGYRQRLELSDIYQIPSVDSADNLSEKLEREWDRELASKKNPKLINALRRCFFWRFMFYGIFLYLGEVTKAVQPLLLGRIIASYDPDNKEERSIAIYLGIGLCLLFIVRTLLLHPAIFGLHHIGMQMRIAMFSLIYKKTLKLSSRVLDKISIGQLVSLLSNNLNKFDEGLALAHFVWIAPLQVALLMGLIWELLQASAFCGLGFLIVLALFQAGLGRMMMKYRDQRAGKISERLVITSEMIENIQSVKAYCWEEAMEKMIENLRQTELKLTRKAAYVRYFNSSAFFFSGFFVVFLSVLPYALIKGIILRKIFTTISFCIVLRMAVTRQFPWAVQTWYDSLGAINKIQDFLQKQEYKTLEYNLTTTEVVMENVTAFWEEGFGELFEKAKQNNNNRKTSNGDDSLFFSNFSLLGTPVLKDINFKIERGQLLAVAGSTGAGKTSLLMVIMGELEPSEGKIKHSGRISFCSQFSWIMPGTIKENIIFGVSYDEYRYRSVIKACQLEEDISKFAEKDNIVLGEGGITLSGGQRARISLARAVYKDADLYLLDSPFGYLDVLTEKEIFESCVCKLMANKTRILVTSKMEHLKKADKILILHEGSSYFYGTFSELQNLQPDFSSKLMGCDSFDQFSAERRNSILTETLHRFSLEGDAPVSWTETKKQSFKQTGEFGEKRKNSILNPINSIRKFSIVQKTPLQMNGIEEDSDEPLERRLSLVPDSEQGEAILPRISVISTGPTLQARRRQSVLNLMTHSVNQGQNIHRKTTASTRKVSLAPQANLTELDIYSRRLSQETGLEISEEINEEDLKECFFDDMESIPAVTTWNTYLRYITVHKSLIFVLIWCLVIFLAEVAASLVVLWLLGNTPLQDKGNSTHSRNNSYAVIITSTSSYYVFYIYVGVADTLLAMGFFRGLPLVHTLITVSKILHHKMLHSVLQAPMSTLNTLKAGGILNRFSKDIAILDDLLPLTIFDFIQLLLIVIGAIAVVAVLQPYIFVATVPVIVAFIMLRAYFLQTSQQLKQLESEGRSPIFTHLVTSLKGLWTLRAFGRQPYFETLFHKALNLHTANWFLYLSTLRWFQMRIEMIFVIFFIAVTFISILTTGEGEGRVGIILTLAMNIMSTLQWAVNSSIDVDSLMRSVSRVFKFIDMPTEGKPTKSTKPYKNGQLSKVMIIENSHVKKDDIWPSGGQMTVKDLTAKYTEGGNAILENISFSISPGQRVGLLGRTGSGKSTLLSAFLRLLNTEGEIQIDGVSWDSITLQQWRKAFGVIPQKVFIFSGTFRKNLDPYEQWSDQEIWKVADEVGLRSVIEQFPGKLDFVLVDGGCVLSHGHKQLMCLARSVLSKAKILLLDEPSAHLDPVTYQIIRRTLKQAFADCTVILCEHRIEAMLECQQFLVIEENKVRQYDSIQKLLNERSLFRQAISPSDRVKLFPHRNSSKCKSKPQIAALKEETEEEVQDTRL

Structure (SMILES): CN(C)c1ccc(/C=c2\c3ccccc3n3c2cc(-c2ccccc2)[n+]3C)cc1
- AC50 [1]: 94 µM (active)
- IC50 (Nonstructural protein 1): 6.8 µM (active)
- AC50 [2]: 4.19 µM (active)
- IC50 [3]: 66.8 µM (inactive)

Structure (SMILES): CN(c1ncnc(N)c1[N+](=O)[O-])C1CCCCC1
- AC50 [4]: 15.3 µM (active)
- IC50 (Interleukin-8 [5]): 46.8 µM (inactive)
- IC50 (Interleukin-8 [6]): 16.9 µM (inactive)

Structure (SMILES): CCOc1ccccc1C1C(C#N)=C(N)Nc2onc(-c3ccccc3)c21 (stereo not given)
- IC50 (Leucine aminopeptidase): 52.7 µM (active)
- EC50 (Estrogen receptor): 17.5 µM (active)
- AC50 [7]: 2.47 µM (active)
- EC50 (Protein RecA): 1.39 µM (active)

Structure (SMILES): CCOC(=O)c1cc2c(ccn2C)n1CC(=O)N1CCN(c2cccc(C(F)(F)F)c2)CC1
- IC50 (Protein Rev): > 75.4 µM (not active)
- IC50 [8]: > 6.63 µM (active)

Structure (SMILES): O=C(Nc1sc2c(c1C(=O)O)CCCCC2)c1cccs1
- IC50 [9]: 27.6 µM (active)

Structure (SMILES): Cc1oc2ccc(OC(=O)N(C)C)cc2c1C(=O)OC(C)C
- EC50 [10]: 137 µM (inconclusive)
- EC50 [11]: 1.34 µM (active)
- EC50 [12]: > 180 µM (inactive)
- IC50 [9]: 35.1 µM (active)
- EC50 [13]: > 160 µM (inactive)

Structure (SMILES): CC(=O)N1CCN(C2=Nc3cccc4cccc2c34)CC1
- IC50 (Protein Rev): 15.8 µM (not active)
- IC50 [8]: 7.57 µM (active)
- EC50 (Kallikrein-7): 36.7 µM (inactive)

Structure (SMILES): Cc1cc(NC(=O)c2c(F)c(F)c(F)c(F)c2F)no1
- AC50 [4]: 1.24 µM (active)

Structure (SMILES): C=Cc1cnn(-c2ccc(C(C)C)cc2)c(=O)c1Oc1ccc(OC)cc1
- IC50 [14]: 3.9 µM (active)

Structure (SMILES): CC(C)c1ccc(-n2ncc(Cl)c(Oc3ccc(CO)cc3)c2=O)cc1
- IC50 [14]: 3.7 µM (active)

Source: ChEMBL document CHEMBL1201862, “PubChem BioAssay data set” (2004)
